# Laboratory results: patent US7919623B2, “Naphthyridine derivatives having inhibitory activity against HIV integrase” (Shionogi & Co., Ltd., priority 2004, dated 2011)
# pIC50: −log10 of the molar value. Counter-ions that a name gives are not always drawn.
# Experiments:
# [1] = biological target: HIV integrase (Human immunodeficiency virus type 1 group M subtype B, UniProt P04585); assay: biochemical
# Protocol: The inhibitory activities against integrase were determined by the assay described below. • (1) Preparation of DNA Solutions
# Before using the DNA solutions, complementary chains were annealed by slowly cooling after boiling.
# Streptavidin, obtained from Vector Laboratories, was dissolved in 0.1 M carbonate buffer (composition: 90 mM Na2CO3, 10 mM NaHCO3) at concentration of 40 μg/ml. After coating each well of immunoplates (obtained from NUNC) with 50 μl of the above solution at 4° C. over night, each well was washed twice with PBS (composition: 13.7 mM NaCl, 0.27 mM KCl, 0.43 mM Na2HPO4, 0.14 mM KH2PO4) and blocked with 300 μl of 1% skim milk in PBS for 30 min. Additionally, each well was washed twice with PBS and added 50 μl of substrate DNA solution (2 pmol/μl). The immunoplates were kept at room temperature for 30 min while shaking. Then, each well was washed twice with PBS and once with the distilled water.
# Subsequently, in the each well prepared above were added 51 μl of the reaction solution prepared from 12 μl of the buffer (composition: 150 mM MOPS (pH7.2), 75 mM MnCl2, 50 mM 2-mercaptoethanol, 25% glycerol, 500 μg/ml bovine serum albumin-fraction V), and 39 μl of the distilled water. Then 9 μl of an integrase solution (30 pmol) was added and mixed well. In the well of negative control (NC) was added 9 μl of the integrase dilution buffer (composition: 20 mM MOPS (pH7.2), 400 mM potassium glutamate, 1 mM EDTA, 0.1% NP-40, 20% glycerol, 1 mM DTT, 4M urea), and mixed well using a plate mixer.
# The plates were incubated at 30° C. for 60 minutes. The reaction solution was removed and washed three times with 250 μl of washing buffer (composition: 150 mM MOPS (pH7.2), 50 mM 2-mercaptoethanol, 25% glycerol, 500 μg/ml bovine serum albumin-fraction V).
# Then each well was added with 53 μl of reaction solution prepared from 12 μl of buffer (composition: 150 mM MOPS (pH7.2), 75 mM MgCl2, 50 mM 2-mercaptoethanol, 25% glycerol, 500 μg/ml bovine serum albumin-fraction V) and 41 μl of distilled water. Further, each well was added with 6 μl of DMSO solution of a compound to be tested, and the well of positive control (PC) was added with 6 μl of DMSO, and mixed well by a plate mixer. After incubating the plate for 30 minutes at 30° C., was added 1 μl of target DNA (5 pmol/μl), and mixed well by a plate mixer.
# After incubation for 10 minutes at 30° C., each plate was washed twice with PBS after removal of the reaction solution. Then, 100 μl of ×2000 diluted solution of anti-digoxigenin antibody labeled with alkaline phosphatase (sheep Fab fragment: Boehringer) was added allowed to bind for 1 hour at 30° C., and washed twice with PBS containing 0.05% Tween20 and once with PBS in this sequence. Next, 150 μl of the Alkaline phosphatase coloring buffer (composition: 10 mM p-Nitrophenylphosphate (obtained from Vector Laboratories), 5 mM MgCl2, 100 mM NaCl, 100 mM Tris-HCl (pH 9.5)) was added and allowed to react for 2 hours at 30° C. Then the reaction was terminated by the addition of 50 μl of 1N NaOH solution. The optical density at 405 nm (OD405nm) of each well was measured and the inhibition rate (IC50) was determined by the following expression. The inhibition rate(%)=100[1−{(C abs.−NC abs.)/(PC abs.−NC abs.)}]
# C abs.; the OD of the well of the compound
# NC abs.: the OD of the negative control (NC)
# PC abs.: the OD of the positive control (PC)
Structure (SMILES),melting point,pIC50 [1]
"COCCNC(=O)c1nc(C(=O)OCCOC)c2cc(Cc3ccc(F)cc3)cnc2c1O [Example A-5, 3-(4-fluorobenzyl)-8-hydroxy-7-(2-methoxyethylcarbamoyl)[1,6]naphthyridine-5-carboxylic acid 2-methoxyethyl ester]",139 to 141 °C,–
"CCOCCNC(=O)c1nc(NC(=O)COC)c2cc(Cc3ccc(F)cc3)cnc2c1O [Example B-14, 3-(4-fluorobenzyl)-8-hydroxy-5-(2-methoxyacetylamino)[1,6]naphthyridine-7-carboxylic acid (2-ethoxyethyl)amide]",175 to 177 °C,7.32
"COCCNC(=O)c1nc(C(=O)OC2CCN(C(C)=O)CC2)c2cc(Cc3ccc(F)cc3)cnc2c1O [Example A-6, 3-(4-fluorobenzyl)-8-hydroxy-7-(2-methoxyethylcarbamoyl)[1,6]naphthyridine-5-carboxylic acid 1-acetylpiperidine-4-yl ester]",92 to 94 °C,–
"COCCNC(=O)c1nc(C)c2cc(Cc3ccc(F)cc3)cnc2c1O [Example B-2, 3-(4-fluorobenzyl)-8-hydroxy-5-methyl[1,6]naphthyridine-7-carboxylic acid (2-methoxyethyl)amide]",167 to 168 °C,7.70
"CCC(O)CNC(=O)c1nc(C(=O)NCCOC)c2cc(Cc3ccc(F)cc3)cnc2c1O (stereo not shown) [Example B-22, 3-(4-fluorobenzyl)-8-hydroxy[1,6]naphthyridine-5,7-dicarboxylic acid 7-[(2-hydroxybutyl)amide] 5-[(2-methoxyethyl)amide]]",–,7.44
"COCC(=O)Nc1nc(C(=O)NCCC(=O)OC)c(O)c2ncc(Cc3ccc(F)cc3)cc12 [Example B-15, Methyl 3-([3-(4-fluorobenzyl)-8-hydroxy-5-(2-methoxyacetylamino)[1,6]naphthyridine-7-carbonyl]amino)propionate]",168 to 170 °C,7.35
"Cc1nc(C(=O)NN(C)C)c(O)c2ncc(Cc3ccc(F)cc3)cc12 [Example B-17, 3-(4-fluorobenzyl)-8-hydroxy-5-methyl[1,6]naphthyridine-7-carboxylic acid N′,N′-dimethylhydrazide]",137 to 139 °C,7.77
"COCC(=O)Nc1nc(C(=O)NCCC#N)c(O)c2ncc(Cc3ccc(F)cc3)cc12 [Example B-8, 3-(4-fluorobenzyl)-8-hydroxy-5-(2-methoxyacetylamino)[1,6]naphthyridine-7-carboxylic acid (2-cyanoethyl)amide]",173 to 175 °C,7.56
"CCC(O)CNC(=O)c1nc(C(=O)NC(C)(C)C)c2cc(Cc3ccc(F)cc3)cnc2c1O (stereo not shown) [Example B-21, 3-(4-fluorobenzyl)-8-hydroxy[1,6]naphthyridine-5,7-dicarboxylic acid 5-tert-butylamide 7-[(2-hydroxybutyl)amide]]",–,7.75
"CCC(O)CNC(=O)c1nc(NC(=O)COC)c2cc(Cc3ccc(F)cc3)cnc2c1O (stereo not shown) [Example B-1, 3-(4-fluorobenzyl)-8-hydroxy-5-(2-methoxyacetylamino)-[1,6]naphthyridine-7-carboxylic acid (2-hydroxybutyl)amide]",–,7.62
"CNC(=O)C(=O)Nc1nc(C(=O)NC(C)CO)c(O)c2ncc(Cc3ccc(F)cc3)cc12 (stereo not shown) [Example B-28, N-[3-(4-fluorobenzyl)-8-hydroxy-7-(2-hydroxy-1-methylethylcarbamoyl)[1,6]naphthyridine-5-yl]-N′-methyl oxalamide]",131 to 133 °C,–
"COCC=Cc1nc(C(=O)NCCN(C)C)c(O)c2ncc(Cc3ccc(F)cc3)cc12.Cl.O (hydrate or solvate) [Example B-20, 3-(4-fluorobenzyl)-8-hydroxy-5-(3-methoxypropenyl)[1,6]naphthyridine-7-carboxylic acid (2-dimethylaminoethyl)amide hydrochloride monohydrate]",156 to 158 °C,–
"COCCNC(=O)C(=O)Nc1nc(C(=O)NN(C)C)c(O)c2ncc(Cc3ccc(F)cc3)cc12 [Example B-25, N-[7-(N′,N′-dimethylhydrazinocarbonyl)-3-(4-fluorobenzyl)-8-hydroxy[1,6]naphthyridine-5-yl]-N′-(2-methoxyethyl)oxalamide]",167 to 169 °C,–
"COCC(=O)Nc1nc(C(=O)NC(C)CO)c(O)c2ncc(Cc3ccc(F)cc3)cc12 (stereo not shown) [Example B-10, 3-(4-fluorobenzyl)-8-hydroxy-5-(2-methoxyacetylamino)[1,6]naphthyridine-7-carboxylic acid (2-hydroxy-1-methylethyl)amide]",–,7.30
"COCC(=O)Nc1nc(C(=O)NCCCN(C)C)c(O)c2ncc(Cc3ccc(F)cc3)cc12 [Example B-13, 3-(4-fluorobenzyl)-8-hydroxy-5-(2-methoxyacetylamino)[1,6]naphthyridine-7-carboxylic acid (3-dimethylaminopropyl)amide]",–,7.15
"CCC(O)CNC(=O)c1nc(C(=O)NCCCN2CCCC2=O)c2cc(Cc3ccc(F)cc3)cnc2c1O (stereo not shown) [Example B-23, 3-(4-fluorobenzyl)-8-hydroxy[1,6]naphthyridine-5,7-dicarboxylic acid 7-[(2-hydroxybutyl)amide]5-{[3-(2-oxopyrrolidine-1-yl)propyl]amide}]",–,7.45
"CNC(=O)C(=O)Nc1nc(C(=O)NCCO)c(O)c2ncc(Cc3ccc(F)cc3)cc12 [Example B-27, N-[3-(4-fluorobenzyl)-8-hydroxy-7-(2-hydroxyethylcarbamoyl)[1,6]naphthyridine-5-yl]-N′-methyl oxalamide]",136 to 137 °C,–
"CNC(=O)C(=O)Nc1nc(C(=O)NCCOC)c(O)c2ncc(Cc3ccc(F)cc3)cc12 [Example A-3, N-[3-(4-fluorobenzyl)-8-hydroxy-7-(2-methoxyethylcarbamoyl)[1,6]naphthyridine-5-yl]-N′-methyloxal amide]",–,7.38
"CN(C)NC(=O)c1nc(NC(=O)C(=O)N(C)C)c2cc(Cc3ccc(F)cc3)cnc2c1O [Example B-26, N-[7-(N′,dimethylhydrazinocarbonyl)-3-(4-fluorobenzyl)-8-hydroxy[1,6]naphthyridine-5-yl]-N′,N′-dimethyl oxalamide]",125 to 128 °C,–
"CCN(CC)CCCNC(=O)c1nc(NC(=O)COC)c2cc(Cc3ccc(F)cc3)cnc2c1O [Example B-12, 3-(4-fluorobenzyl)-8-hydroxy-5-(2-methoxyacetylamino)[1,6]naphthyridine-7-carboxylic acid (3-diethylaminopropyl)amide]",–,6.80
"COCC=Cc1nc(C(=O)NCCN(C)C)c(O)c2ncc(Cc3ccc(F)cc3)cc12 [Example B-20, 3-(4-fluorobenzyl)-8-hydroxy-5-(3-methoxypropenyl)[1,6]naphthyridine-7-carboxylic acid (2-dimethylaminoethyl)amide hydrochloride monohydrate]",–,7.46
"CCC(O)CNC(=O)c1nc(C(=O)NCC2CCCO2)c2cc(Cc3ccc(F)cc3)cnc2c1O (stereo not shown) [Example B-24, 3-(4-fluorobenzyl)-8-hydroxy[1,6]naphthyridine-5,7-dicarboxylic acid 7-[(2-hydroxybutyl)amide] 5-[(tetrahydrofuran-2-ylmethyl)amide]]",–,7.52
"COCC(=O)Nc1nc(C(=O)NCCN(C)C)c(O)c2ncc(Cc3ccc(F)cc3)cc12 [Example B-9, 3-(4-fluorobenzyl)-8-hydroxy-5-(2-methoxyacetylamino)[1,6]naphthyridine-7-carboxylic acid (2-dimethylaminoethyl)amide]",–,7.43
